{"source": "patent US20100113368A1", "about": "“CHOLESTEROL LOWERING PROTEIN HYDROLYSATES” (priority 2007, published 2010)", "note": "Marks after values point to notes of the source that are not given here.", "data": [{"tested_on": "hypercholesterolemic rat model", "assay": "Hypocholesterolemic effects of peptide R-P-P-R-S in Fisher F344 rats (Example 5)", "type": "in vivo", "details": "male F344 rats on atherogenic diet, 100 mg/kg BW orally for 7 days, fasted, 2 h after last dose, mean ± SD", "description": "(§1) In this experiment the effects of the chemically synthesized […] R-P-P-R-S was tested on plasma cholesterol levels in the hypercholesterolemic rat model.\n(§2) In short male Fisher rats (F344) from Charles River (Sulzfeld, Germany), weighing 65-96 g were housed individually with free access to water and feed, with an alternating 12-hour light-dark cycle. The animals were fed a rodent atherogenic diet high in cholesterol and fat for the 2 weeks preceding the treatment. The macro-nutrient composition of the diet was as follows (g/100 g anhydrous mix): protein 20.8; fiber 4.2; fat 15; carbohydrate 48. The diet also contained 1.25 wt % cholesterol, 0.5 wt % sodium cholate and a standard vitamin and mineral mix, prepared according to rat nutritional requirements. The main fats consisted of cacoa butter (7.5 wt %) and soja oil (4.35 wt %). After 2 weeks of adaptation to the diet the rats were randomized according to body weight into two experimental groups of 10 animals. The two groups were treated orally every morning for 7 days with either water (control group) or peptide R-P-P-R-S, at a dose of 100 mg/kg body weight (BW) while continuing the aetherogenic diet. There was no difference in feed consumption over the whole experiment. The day before the last administration, all animals were dosed orally in the evening and deprived of food overnight (14 hours) but allowed free access to water. At day 7 the fasted rats were treated again orally in the morning and after two hours the animals were sacrificed by withdrawing blood from the vena Cava under Isoflurane anesthesia. Blood was collected into tubes containing EDTA as an anticoagulant. […] Assays of plasma cholesterol and HDL-cholesterol (precipitation method) were determined enzymatically on a Hitachi 912 automatic analyzer (Roche Diagnostica, Switzerland). Non-HDL cholesterol was calculated by difference between total cholesterol and HDL cholesterol. […] All data are expressed as means±standard deviation (SD) for animals in each diet group, with n being the number of rats. […]", "values": [{"molecule": "R-P-P-R-S (RPPRS) [chemically synthesized peptide Arg-Pro-Pro-Arg-Ser]", "HDL cholesterol (plasma)": "0.36 ± 0.10^b mmol/L", "Total cholesterol (plasma)": "2.9 ± 0.4^b mmol/L"}]}, {"tested_on": "hypercholesterolemic rat model", "assay": "Hypocholesterolemic effects of peptide R-P-P-R-S in Fisher F344 rats (Example 5)", "type": "in vivo", "details": "male F344 rats on atherogenic diet, 100 mg/kg BW orally for 7 days; difference between total and HDL cholesterol, mean ± SD", "description": "as §1, §2", "values": [{"molecule": "R-P-P-R-S (RPPRS) [chemically synthesized peptide Arg-Pro-Pro-Arg-Ser]", "non HDL cholesterol (plasma)": "2.5 ± 0.5^b mmol/L"}]}, {"tested_on": "hypercholesterolemic rat model", "assay": "Hypocholesterolemic effects of R-P-P-R, K-P-P, L-arginine and Ezetimib in Fisher F344 rats (Example 6)", "type": "in vivo", "details": "in words; 8 days orally, 100 mg/kg BW (Ezetimib 1 mg/kg BW)", "description": "(§3) In this experiment the effects of the chemically synthesized peptides R-P-P-R and K-P-P, the free amino acid L-arginine and the potent and selective cholesterol absorption inhibitor Ezetimib (Ezetrol, MSD Germany) were tested on plasma cholesterol levels in the hypercholesterolemic rat model.\n(§4) Male Fisher rats (F344) from Charles River (Sulzfeld, Germany), weighing 65-96 g were housed individually with free access to water and feed, with an alternating 12-hour light-dark cycle. The animals were fed a rodent atherogenic diet high in cholesterol and fat similar to the procedure described in Example 5. After 2 weeks of adaptation to the diet the rats were randomized according to body weight into five experimental groups of 10 animals each. The five groups were treated orally every morning for 8 days with either water (control group) or with R-P-P-R, K-P-P and L-arginine at a dose of 100 mg/kg body weight (BW) or with Ezetimib at a dose of 1 mg/kg BW while continuing the aetherogenic diet. There was no difference in feed consumption over the whole experiment. The day before the last administration, all animals were dosed orally in the evening and deprived of food for the last 6 hours but allowed free access to water. At day 8 the fasted rats were treated again orally in the morning and after two hours the animals were sacrificed by withdrawing blood from the vena Cava under Isoflurane anesthesia. Blood was collected into tubes containing EDTA as an anticoagulant. Plasma was prepared from the blood by immediate centrifugation at 1600 g for 10 minutes at 4° C. Assays of plasma cholesterol and HDL-cholesterol (precipitation method) were determined enzymatically on a Hitachi 912 automatic analyzer (Roche Diagnostica, Switzerland). Non-HDL cholesterol was calculated by difference between total cholesterol and HDL cholesterol. All data are expressed as means±standard deviation (SD) for animals in each diet group, with n being the number of rats.", "values": [{"molecule": "O=C1[C@H](CC[C@H](O)c2ccc(F)cc2)[C@@H](c2ccc(O)cc2)N1c1ccc(F)cc1", "note": "[Ezetimib, reference compound]", "Effect on non-HDL cholesterol (VLDL-cholesterol+LDL-cholesterol) as compared to the control group": "prominent effects", "Effect on plasma HDL-cholesterol as compared to the control group": "prominent effects", "Effect on plasma total cholesterol as compared to the control group": "prominent effects"}, {"molecule": "N=C(N)NCCC[C@H](N)C(=O)O", "note": "[L-arginine, reference compound]", "Effect on non-HDL cholesterol (VLDL-cholesterol+LDL-cholesterol) as compared to the control group": "had no effect", "Effect on plasma HDL-cholesterol as compared to the control group": "had no effect", "Effect on plasma total cholesterol as compared to the control group": "had no effect"}, {"molecule": "K-P-P [KPP]", "Effect on non-HDL cholesterol (VLDL-cholesterol+LDL-cholesterol) as compared to the control group": "tended to lowered", "Effect on plasma HDL-cholesterol as compared to the control group": "significantly increased", "Effect on plasma total cholesterol as compared to the control group": "tended to lowered"}, {"molecule": "R-P-P-R (RPPR) [chemically synthesized peptide Arg-Pro-Pro-Arg]", "Effect on non-HDL cholesterol (VLDL-cholesterol+LDL-cholesterol) as compared to the control group": "significantly lowered", "Effect on plasma HDL-cholesterol as compared to the control group": "tended to increase", "Effect on plasma total cholesterol as compared to the control group": "significantly lowered"}]}, {"tested_on": "hypercholesterolemic rat model", "assay": "Hypocholesterolemic effects of R-P-P-R, K-P-P, L-arginine and Ezetimib in Fisher F344 rats (Example 6)", "type": "in vivo", "details": "male F344 rats on atherogenic diet, orally for 8 days, peptides and L-arginine 100 mg/kg BW, Ezetimib 1 mg/kg BW, mean ± SD", "description": "as §3, §4", "units": {"HDL cholesterol (plasma)": "mmol/L", "Total cholesterol (plasma)": "mmol/L"}, "values": [{"molecule": "O=C1[C@H](CC[C@H](O)c2ccc(F)cc2)[C@@H](c2ccc(O)cc2)N1c1ccc(F)cc1", "note": "[Ezetimib, reference compound]", "HDL cholesterol (plasma)": "0.51 ± 0.06", "Total cholesterol (plasma)": "4.70 ± 0.93"}, {"molecule": "N=C(N)NCCC[C@H](N)C(=O)O", "note": "[L-arginine, reference compound]", "HDL cholesterol (plasma)": "0.33 ± 0.05", "Total cholesterol (plasma)": "7.66 ± 1.08"}, {"molecule": "K-P-P [KPP]", "HDL cholesterol (plasma)": "0.37 ± 0.04", "Total cholesterol (plasma)": "6.82 ± 1.42"}, {"molecule": "R-P-P-R (RPPR) [chemically synthesized peptide Arg-Pro-Pro-Arg]", "HDL cholesterol (plasma)": "0.35 ± 0.04", "Total cholesterol (plasma)": "5.28 ± 0.81"}]}, {"tested_on": "hypercholesterolemic rat model", "assay": "Hypocholesterolemic effects of R-P-P-R, K-P-P, L-arginine and Ezetimib in Fisher F344 rats (Example 6)", "type": "in vivo", "details": "male F344 rats on atherogenic diet, orally for 8 days, peptides and L-arginine 100 mg/kg BW, Ezetimib 1 mg/kg BW; difference between total and HDL cholesterol, mean ± SD", "description": "as §3, §4", "units": {"non HDL cholesterol (plasma)": "mmol/L"}, "values": [{"molecule": "O=C1[C@H](CC[C@H](O)c2ccc(F)cc2)[C@@H](c2ccc(O)cc2)N1c1ccc(F)cc1", "note": "[Ezetimib, reference compound]", "non HDL cholesterol (plasma)": "4.19 ± 0.90"}, {"molecule": "N=C(N)NCCC[C@H](N)C(=O)O", "note": "[L-arginine, reference compound]", "non HDL cholesterol (plasma)": "7.32 ± 1.08"}, {"molecule": "K-P-P [KPP]", "non HDL cholesterol (plasma)": "6.45 ± 1.44"}, {"molecule": "R-P-P-R (RPPR) [chemically synthesized peptide Arg-Pro-Pro-Arg]", "non HDL cholesterol (plasma)": "4.94 ± 0.81"}]}]}
